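These data come from cells grown in 96-well plates and exposed to compound for 48 hours at five concentrations. At the GI50, growth is halved. TGI marks complete inhibition of growth.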
Legend:
Experiment in all cases: NCI-60 cell line screen, 48 h
HCC-2998 colon = system: HCC-2998 colon
BT-549 breast = system: BT-549 breast
RPMI-8226 leukemia = system: RPMI-8226 leukemia
CAKI-1 renal = system: CAKI-1 renal
UACC-62 melanoma = system: UACC-62 melanoma
MCF7 breast = system: MCF7 breast
OVCAR-4 ovarian = system: OVCAR-4 ovarian
TK-10 renal = system: TK-10 renal
KM12 colon = system: KM12 colon
NCI-H460 lung = system: NCI-H460 lung

`COc1ccc(-n2nc(C(=O)c3ccccc3)c3nn4c(=O)cc(-c5ccccc5)nc4nc32)cc1` was tested, and the GI50 (HCC-2998 colon) was 47.3 µM, the TGI (HCC-2998 colon) was 76.7 µM and the GI50 (BT-549 breast) was 55.1 µM. The TGI (BT-549 breast) was > 100 µM, the GI50 (RPMI-8226 leukemia) was 40 µM and the TGI (RPMI-8226 leukemia) was > 100 µM. The GI50 (CAKI-1 renal) was > 100 µM, the TGI (CAKI-1 renal) was > 100 µM and the GI50 (UACC-62 melanoma) was 28.4 µM. For the same compound, the TGI (UACC-62 melanoma) was 97.6 µM, the GI50 (MCF7 breast) was 30.7 µM and the TGI (MCF7 breast) was > 100 µM. The GI50 (OVCAR-4 ovarian) was 30.5 µM, the TGI (OVCAR-4 ovarian) was > 100 µM and the GI50 (TK-10 renal) was 40.3 µM. For the same compound, the TGI (TK-10 renal) was > 100 µM, the GI50 (KM12 colon) was 46.5 µM and the TGI (KM12 colon) was > 100 µM. For the same compound, the GI50 (NCI-H460 lung) was 32.4 µM and the TGI (NCI-H460 lung) was > 100 µM.

In the case of `C#C[C@]1(O)[C@@H](CO)O[C@@H](n2ccc(=O)[nH]c2=O)[C@@H]1O`, the TGI (RPMI-8226 leukemia) is reported as > 100 µM, the TGI (UACC-62 melanoma) is reported as 3.56 µM and the TGI (MCF7 breast) is reported as > 100 µM. For the same compound, the TGI (OVCAR-4 ovarian) was 45.3 µM, the TGI (TK-10 renal) was > 100 µM and the TGI (KM12 colon) was > 100 µM. The TGI (NCI-H460 lung) was > 100 µM.

In the case of `COc1ccc(-n2nnc3c(C#N)c(C)c(-c4ccccc4)n3c2=O)cc1`, the TGI (HCC-2998 colon) is reported as > 33.2 µM, the TGI (BT-549 breast) is reported as > 100 µM and the TGI (RPMI-8226 leukemia) is reported as > 100 µM. The TGI (CAKI-1 renal) was > 100 µM, the TGI (UACC-62 melanoma) was > 100 µM and the TGI (MCF7 breast) was > 100 µM. For the same compound, the TGI (OVCAR-4 ovarian) was > 100 µM, the TGI (TK-10 renal) was > 100 µM and the TGI (KM12 colon) was > 100 µM. The TGI (NCI-H460 lung) was > 39.3 µM.

In the case of `O=C1/C(=C/c2ccc([N+](=O)[O-])cc2)Sc2scc(-c3cccc([N+](=O)[O-])c3)[n+]21`, the TGI (HCC-2998 colon) is reported as 19.1 µM, the TGI (BT-549 breast) is reported as 18.7 µM and the TGI (RPMI-8226 leukemia) is reported as 11.4 µM. For the same compound, the TGI (CAKI-1 renal) was 7.03 µM, the TGI (UACC-62 melanoma) was 29.9 µM and the TGI (MCF7 breast) was > 38.3 µM. For the same compound, the TGI (OVCAR-4 ovarian) was 31.4 µM, the TGI (TK-10 renal) was 17.8 µM and the TGI (KM12 colon) was 24.6 µM. It also gave a TGI (NCI-H460 lung) of 26.1 µM.

In the case of `Cc1ccc([N+](=O)[O-])cc1S(=O)(=O)Nc1ccc(C2=NN(C(=O)c3ccccc3)C(c3ccccc3O)C2)cc1` (stereo unspecified), the TGI (BT-549 breast) is reported as 30.7 µM, the TGI (RPMI-8226 leukemia) is reported as > 100 µM and the TGI (CAKI-1 renal) is reported as 91.9 µM. For the same compound, the TGI (MCF7 breast) was 26.7 µM, the TGI (OVCAR-4 ovarian) was 42.8 µM and the TGI (TK-10 renal) was 28.5 µM. The TGI (KM12 colon) was > 100 µM.

For `Oc1ccc(Cl)cc1C1=Nn2c(COc3ccc4c(c3)CCCC4)nnc2SC1`, the TGI (BT-549 breast) was 34.6 µM, the TGI (RPMI-8226 leukemia) was 19.3 µM and the TGI (CAKI-1 renal) was 49.6 µM. For the same compound, the TGI (UACC-62 melanoma) was 25.4 µM, the TGI (MCF7 breast) was 32.5 µM and the TGI (OVCAR-4 ovarian) was 13.8 µM. The TGI (TK-10 renal) was 20.1 µM, the TGI (KM12 colon) was 29.8 µM and the TGI (NCI-H460 lung) was 30.9 µM.

`C=C(CN(C)C)C(=O)c1ccccc1Cl` gave a TGI (HCC-2998 colon) of 61 µM, a TGI (RPMI-8226 leukemia) of 82.3 µM and a TGI (CAKI-1 renal) of 30.9 µM. It also gave a TGI (UACC-62 melanoma) of 34.2 µM, a TGI (OVCAR-4 ovarian) of 40.8 µM and a TGI (TK-10 renal) of 39.2 µM. For the same compound, the TGI (KM12 colon) was > 75 µM and the TGI (NCI-H460 lung) was > 100 µM.

`CC(C)(C)COS(=O)OCC(C)(C)C` was tested, and the TGI (HCC-2998 colon) was > 100 µM, the TGI (BT-549 breast) was > 100 µM and the TGI (RPMI-8226 leukemia) was > 100 µM. For the same compound, the TGI (CAKI-1 renal) was > 100 µM, the TGI (UACC-62 melanoma) was > 100 µM and the TGI (MCF7 breast) was > 100 µM. The TGI (OVCAR-4 ovarian) was > 100 µM, the TGI (TK-10 renal) was > 100 µM and the TGI (KM12 colon) was > 100 µM. The TGI (NCI-H460 lung) was > 100 µM.

With `CN(CCc1ccccn1)c1ccc2c(c1)Cc1ccccc1-2` the TGI (HCC-2998 colon) was > 100 µM, the TGI (BT-549 breast) was 46.8 µM and the TGI (RPMI-8226 leukemia) was 84.7 µM. The TGI (CAKI-1 renal) was > 100 µM, the TGI (UACC-62 melanoma) was > 100 µM and the TGI (MCF7 breast) was > 100 µM. The TGI (OVCAR-4 ovarian) was 97.7 µM, the TGI (TK-10 renal) was > 100 µM and the TGI (KM12 colon) was 37.7 µM. For the same compound, the TGI (NCI-H460 lung) was > 100 µM.

— PubChem BioAssay (NCI)
